Holding throughout (format): physicochemical
Series [1] is described as follows: Solubility of crystalline Form 1 in aqueous and biorelevant media.
Series [2] can be described thus: Solubility of crystalline Form 1 in organic solvents. The settings on record: organic solvent or mixture.
Series [3] can be described thus: Solid form chemical and physical stability.

Converted amounts (≈) assume the structure as drawn.

For the compound `[2H]C([2H])([2H])CC(=O)c1cnc(NC(=O)C2CC2)cc1Nc1cccc(-c2ncn(C([2H])([2H])[2H])n2)c1OC` [Form 1, N-(4-((2-methoxy-3-(1-(methyl-d3)-1H-1,2,4-triazol-3-yl)phenyl)amino)-5-(propanoyl-3,3,3-d3)pyridin-2-yl) cyclopropanecarboxamide], the solubility – broadly, how much of the substance goes into solution per volume – was 1 to 2 µg/mL (≈ 2.34 to 4.69 µM) in series [1] (in FaSSIF); 30 to 50 µg/mL (≈ 70.3 to 117 µM) in series [1] (in FeSSIF); 3970 to 4280 µg/mL (≈ 9310 to 10000 µM) in series [1] (simulated gastric fluid, in SGF); less than 3000 µg/mL in series [2] (in MeOH); more than 43000 µg/mL in series [2] (in MeOH/DCM (1/1)); less than 17000 µg/mL in series [2] (in THF). Further, the solubility was less than 3000 µg/mL in series [2] (in acetone); less than 1000 µg/mL in series [2] (in acetonitrile); less than 1000 µg/mL in series [2] (in ethanol); less than 1000 µg/mL in series [2] (in ethyl acetate); less than 1000 µg/mL in series [2] (in heptane); less than 1000 µg/mL in series [2] (in isopropyl alcohol). In addition, in series [2] (in methyl t-butyl ether), the solubility is less than 1000 µg/mL. The “time chemically and physically stable” value in series [3] (40° C./75% RH) and in series [3] (60° C.) was “at least 10 days” throughout.

Values taken from patent US20260138965A1, “CRYSTALLINE FORMS OF A TYK2 INHIBITOR AND USES THEREOF” (Alumis Inc., priority 2022, published 2026).
